Assay results from US10919843B2, “Cannabidiol derivatives as inhibitors of the HIF prolyl hydroxylases activity” (priority 2017, dated 2021).

Assays:
[1] = test system: HIF-1α; assay: HIF-1α transactivation assay in NIH-3T3-EPO-Luc cells; type: cell-based; conditions: for Efficacy HIF-1α (IRA coefficient): relative to 150 μM DFX; for EC50: read-out: Potency EC50 HIF-1α
Procedure: (§1) To investigate the biological activities of the different compounds, HIF-1α transactivation assays were performed either in NIH-3T3-EPO-Luc cells (Table 1) or in HaCaT-EPO-luc cells (Table 2). The NIH3T3-EPO-luc and HaCaT-EPO-luc cells have been stably transfected with the plasmid Epo-Luc plasmid. The EPO-Hypoxia Response Element (HRE)-luciferase reporter plasmid contains three copies of the HRE consensus sequence from the promoter of the erythropoietin gene fused to the luciferase gene.
NIH3T3-EPO-luc cells were maintained at 37° C. in a humidified atmosphere containing 5% CO2 in DMEM supplemented with 10% fetal calf serum (FBS), and 1% (v/v) penicillin/streptomycin. Deferoxamine (DFX) was purchased from Sigma-Aldrich (USA). Cells (1×10^4/well in 96-well plates) were seeded the day before the assay. The next day, the cells were stimulated with increasing concentrations of either Cannabidiol (CBD), VCE-004 or compounds II to X. After six hours of stimulation the cells were lysed in 25 mM Tris-phosphate pH 7.8, 8 mM MgCl2, 1 mM DTT, 1% Triton X-100, and 7% glycerol during 15 min at RT in a horizontal shaker. Luciferase activity was measured using a microplate luminometer (Berthold) following the instructions of the luciferase assay kit (Promega, Madison. Wis., USA).
(§2) HaCaT-EPO-Luc cells were maintained at 37° C. in a humidified atmosphere containing 5% CO2 in DMEM supplemented with 10% fetal calf serum (FBS), and 1% (v/v) penicillin/streptomycin. The cells (1×10^5/well in 24-well plates) were seeded the day before the assay and then stimulated with increasing concentrations of either Cannabidiol (CBD), VCE-004 or compounds II to X. After six hours of stimulation the cells were lysed in 25 mM Tris-phosphate pH 7.8, 8 mM MgCi2, 1 mM DTT, 1% Triton X-100, and 7% glycerol during 15 min at RT in a horizontal shake. Luciferase activity was measured in the cell lysates as indicated for NIH3T3-EPO-Luc cells. The RLUs are calculated and the EC50 and IRA (Intrinsic relative activity) values in both cell lines were determined relative to 150 μM deferoxamine (DFX) using the following equation: IRA coefficient=(EC50-DFX×Emax)/(EC50×Emax-DFX), where EC50 and Emax denote EC50 and Emax of the agonist, and EC50-DFX and Emax-DFX denote EC50 and Emax values of the standard agonist DFX (Table 1 and 2).

[2] = test system: HIF-1α; assay: HIF-1α transactivation assay in HaCaT-EPO-luc cells; type: cell-based; conditions: for Efficacy HIF-1α (IRA coefficient): relative to 150 μM DFX; for EC50: read-out: Potency EC50 HIF-1α
Procedure: as §1, §2

[3] = NIH-3T3-EPO-Luc cells, 6 h stimulation
[4] = HaCaT-EPO-Luc cells, 6 h stimulation

| SMILES | Efficacy HIF-1α (IRA coefficient) [1, 3] | EC50 [1, 3] | Efficacy HIF-1α (IRA coefficient) [2, 4] | EC50 [2, 4] | EC50 ([1]; 6 h) | EC50 ([2]; 6 h) |
| --- | --- | --- | --- | --- | --- | --- |
| C=C(C)[C@@H]1CCC(C)=C[C@H]1C1=C(O)C(=O)C(CCCCC)=C(NCCC(C)C)C1=O [X] | 0.29 | 3300 nM | 10.35 | 1200 nM |  |  |
| C=C(C)[C@@H]1CCC(C)=C[C@H]1C1=C(O)C(=O)C(CCCCC)=C(NCCC(C)C)C1=O [IX] | 0.8 |  | 8.64 |  |  |  |
| C=C(C)[C@@H]1CCC(C)=C[C@H]1C1=C(O)C(=O)C(CCCCC)=C(NCCCCC)C1=O [III] | 0.28 |  | 5.84 | 1700 nM | 3600 nM |  |
| C=C(C)[C@@H]1CCC(C)=C[C@H]1C1=C(O)C(=O)C(CCCCC)=C(NCC(C)(C)C)C1=O [IX] |  |  |  |  | 2500 nM | 1400 nM |
| C=C(C)[C@@H]1CCC(C)=C[C@H]1C1=C(O)C(=O)C(CCCCC)=C(NCc2ccccc2)C1=O [Compound VIII] |  |  |  |  | 2600 nM | 1400 nM |
| C=C(C)[C@@H]1CCC(C)=C[C@H]1C1=C(O)C(=O)C(CCCCC)=C(NCC)C1=O [II] | 0.46 |  | 3.87 |  | 4300 nM | 3200 nM |
| C=C(C)[C@@H]1CCC(C)=C[C@H]1C1=C(O)C(=O)C(CCCCC)=C(NC)C1=O [Compound VI] | 0.61 |  | 3.02 |  | 2800 nM | 4000 nM |
| C=C(C)[C@@H]1CCC(C)=C[C@H]1C1=C(O)C(=O)C(CCCCC)=C(NCC(C)C)C1=O [IV] | 0.61 |  | 5.64 |  | 3200 nM | 1600 nM |
| C=C(C)[C@@H]1CCC(C)=C[C@H]1C1=C(O)C(=O)C(CCCCC)=C(NC(C)C)C1=O [Compound VII] | 0.68 |  | 2.3 |  | 2900 nM | 5500 nM |
| C=C(C)[C@@H]1CCC(C)=C[C@H]1C1=C(O)C(=O)C(CCCCC)=C(NCCCC)C1=O [Compound V] | 0.85 |  | 5.01 |  | 1800 nM | 1900 nM |
